Assay results: ChEMBL document CHEMBL1201862, “PubChem BioAssay data set” (2004)
The source made the active and inactive calls.

How the values were obtained:
[1] = target: T1, Coagulation factor XII (Homo sapiens, UniProt P00748); format: functional;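 note: activated factor XIIa alpha cleaving a fluorogenic AMC peptide substrate; inhibitor potency from loss of enzyme activity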
T1 sequence (P00748 whole entry): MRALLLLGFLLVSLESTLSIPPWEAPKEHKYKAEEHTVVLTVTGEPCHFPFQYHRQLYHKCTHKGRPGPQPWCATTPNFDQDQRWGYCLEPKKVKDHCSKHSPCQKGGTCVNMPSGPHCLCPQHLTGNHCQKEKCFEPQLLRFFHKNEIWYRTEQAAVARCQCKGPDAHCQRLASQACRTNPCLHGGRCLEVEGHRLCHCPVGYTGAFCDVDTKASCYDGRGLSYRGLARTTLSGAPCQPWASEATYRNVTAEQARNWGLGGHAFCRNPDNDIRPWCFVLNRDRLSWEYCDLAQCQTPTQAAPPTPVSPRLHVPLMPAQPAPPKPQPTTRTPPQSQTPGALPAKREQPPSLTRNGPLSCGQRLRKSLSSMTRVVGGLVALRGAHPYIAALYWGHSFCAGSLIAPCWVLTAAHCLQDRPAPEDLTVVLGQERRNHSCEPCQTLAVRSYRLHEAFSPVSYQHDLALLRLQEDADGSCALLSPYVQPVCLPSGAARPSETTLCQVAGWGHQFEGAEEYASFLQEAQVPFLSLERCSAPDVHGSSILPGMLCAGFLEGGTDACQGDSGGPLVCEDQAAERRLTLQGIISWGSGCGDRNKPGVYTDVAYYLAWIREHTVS

[2] = target: Protein Wnt-3a (Mus musculus, UniProt P27467); assay: Wnt3a-driven reporter signaling inhibition, dose response, selectivity assay for Gli-SUFU antagonist project, Wnt-LIGHT cells, luminescence (AID 651570); format: functional; settings: read-out: IC50_Mean;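 note: Wnt-LIGHT reporter cells stimulated with conditioned medium from Wnt3a-producing cells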
[3] = target: T2, High affinity choline transporter 1 (Homo sapiens, UniProt Q9GZV3); assay: CHT inhibitors, dose response, cell-based, 10-point CRC, membrane potential dye (AID 588401); format: functional;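 note: membrane potential dye fluorescence of choline-evoked depolarization via CHT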
T2 sequence (Q9GZV3 whole entry): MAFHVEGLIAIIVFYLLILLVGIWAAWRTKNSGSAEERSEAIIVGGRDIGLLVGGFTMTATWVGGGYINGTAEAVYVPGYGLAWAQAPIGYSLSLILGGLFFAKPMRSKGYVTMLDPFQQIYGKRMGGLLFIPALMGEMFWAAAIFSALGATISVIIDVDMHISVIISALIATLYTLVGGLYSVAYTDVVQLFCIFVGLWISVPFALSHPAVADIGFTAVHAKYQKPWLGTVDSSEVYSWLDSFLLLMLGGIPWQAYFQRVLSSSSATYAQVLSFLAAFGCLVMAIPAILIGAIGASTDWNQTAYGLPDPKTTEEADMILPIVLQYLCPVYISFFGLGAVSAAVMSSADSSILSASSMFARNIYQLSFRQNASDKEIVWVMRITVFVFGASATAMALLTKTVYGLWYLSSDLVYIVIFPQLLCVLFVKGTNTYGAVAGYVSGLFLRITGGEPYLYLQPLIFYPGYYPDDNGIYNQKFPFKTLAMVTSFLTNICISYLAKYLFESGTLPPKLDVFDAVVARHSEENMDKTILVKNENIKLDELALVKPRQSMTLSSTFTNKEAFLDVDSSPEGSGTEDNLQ

[4] = target: T2, High affinity choline transporter 1; assay: CHT inhibitors, dose response, cell-based, 5-point CRC, membrane potential dye (AID 504840); format: functional
[5] = target: Cytochrome P450 2D6 (Homo sapiens, UniProt P10635);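 note: CYP2D6 member of a cytochrome P450 panel assay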
Chain of Cytochrome P450 2D6 (P10635 whole entry): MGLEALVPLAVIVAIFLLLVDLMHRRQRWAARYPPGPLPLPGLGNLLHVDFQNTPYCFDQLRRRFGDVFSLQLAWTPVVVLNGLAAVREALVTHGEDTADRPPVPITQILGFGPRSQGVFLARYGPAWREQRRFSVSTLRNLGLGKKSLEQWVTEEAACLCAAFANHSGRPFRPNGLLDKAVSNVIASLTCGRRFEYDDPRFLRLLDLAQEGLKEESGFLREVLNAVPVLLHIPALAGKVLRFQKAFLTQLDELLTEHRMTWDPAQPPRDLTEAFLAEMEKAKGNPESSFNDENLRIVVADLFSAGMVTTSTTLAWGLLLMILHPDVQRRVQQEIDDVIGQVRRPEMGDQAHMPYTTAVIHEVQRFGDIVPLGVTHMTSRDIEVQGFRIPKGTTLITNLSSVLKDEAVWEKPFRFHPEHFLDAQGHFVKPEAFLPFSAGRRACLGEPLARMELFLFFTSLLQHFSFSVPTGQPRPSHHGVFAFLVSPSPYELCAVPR

[6] = target: Cytochrome P450 3A4 (Homo sapiens, UniProt P08684);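 note: CYP3A4 tested as one member of a cytochrome P450 panel screen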
Chain of Cytochrome P450 3A4 (P08684 whole entry): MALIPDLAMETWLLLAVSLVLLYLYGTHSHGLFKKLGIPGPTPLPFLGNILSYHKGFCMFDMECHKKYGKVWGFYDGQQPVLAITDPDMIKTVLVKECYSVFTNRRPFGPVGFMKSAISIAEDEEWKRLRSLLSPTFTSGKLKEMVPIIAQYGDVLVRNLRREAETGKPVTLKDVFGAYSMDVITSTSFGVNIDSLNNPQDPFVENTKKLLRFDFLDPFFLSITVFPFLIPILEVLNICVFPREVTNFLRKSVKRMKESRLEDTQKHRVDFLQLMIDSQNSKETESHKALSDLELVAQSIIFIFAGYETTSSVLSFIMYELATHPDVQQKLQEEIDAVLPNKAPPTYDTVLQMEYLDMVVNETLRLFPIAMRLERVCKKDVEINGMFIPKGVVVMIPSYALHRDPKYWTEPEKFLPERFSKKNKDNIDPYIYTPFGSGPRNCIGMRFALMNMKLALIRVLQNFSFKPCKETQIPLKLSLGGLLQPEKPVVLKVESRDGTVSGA

[7] = target: Estrogen receptor beta (Homo sapiens, UniProt Q92731);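 note: recombinant ER-beta bound to coactivator SRC1 peptide in presence of estradiol agonist; inhibitors block coactivator peptide binding and lower the FRET signal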
Chain of Estrogen receptor beta (Q92731 whole entry): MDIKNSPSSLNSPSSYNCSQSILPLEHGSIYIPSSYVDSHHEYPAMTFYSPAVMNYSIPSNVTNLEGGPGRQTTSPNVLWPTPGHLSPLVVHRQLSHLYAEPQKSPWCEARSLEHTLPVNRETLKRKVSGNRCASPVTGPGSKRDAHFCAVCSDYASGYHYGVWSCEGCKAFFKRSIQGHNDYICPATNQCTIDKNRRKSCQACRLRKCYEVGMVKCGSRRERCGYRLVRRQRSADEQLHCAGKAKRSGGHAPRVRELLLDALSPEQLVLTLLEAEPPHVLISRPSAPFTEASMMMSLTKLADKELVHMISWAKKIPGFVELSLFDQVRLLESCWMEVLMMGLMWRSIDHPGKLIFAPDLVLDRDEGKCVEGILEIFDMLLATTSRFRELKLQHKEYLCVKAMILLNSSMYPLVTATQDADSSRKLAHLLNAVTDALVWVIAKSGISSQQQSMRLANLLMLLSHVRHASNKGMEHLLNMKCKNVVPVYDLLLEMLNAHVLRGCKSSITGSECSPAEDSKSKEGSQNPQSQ

[8] = target: Cytochrome P450 2C9 (Homo sapiens, UniProt P11712)
[9] = target: T3, Melanocortin receptor 4 (Homo sapiens, UniProt P32245); format: functional, cell-based;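 note: Cell-based assay with luminescence read-out, confirmatory dose-response testing for agonist activity of biased ligands at MC4R; human U2OS cells with tagged receptor and beta-arrestin; potency of agonists that increase receptor coupling to beta-arrestin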
T3 sequence (P32245 whole entry): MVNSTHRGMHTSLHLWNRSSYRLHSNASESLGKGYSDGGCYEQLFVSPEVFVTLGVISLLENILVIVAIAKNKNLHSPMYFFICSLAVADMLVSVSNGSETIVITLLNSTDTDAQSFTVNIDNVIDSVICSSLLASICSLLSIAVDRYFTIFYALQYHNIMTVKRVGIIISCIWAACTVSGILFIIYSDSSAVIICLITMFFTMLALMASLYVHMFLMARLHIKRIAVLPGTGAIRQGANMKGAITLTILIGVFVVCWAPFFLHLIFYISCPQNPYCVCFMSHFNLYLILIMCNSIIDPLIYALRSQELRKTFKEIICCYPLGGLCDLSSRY

[10] = nonselective inhibitors of cellular cAMP signaling, dose response, counter-screen for MC4R biased antagonist project, cell-based, TR-FRET cAMP detection (AID 602305); format: functional;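 note: U2OS cells stimulated with forskolin near its EC80 as the cAMP inducer; potency is for inhibition of forskolin-stimulated cAMP signaling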
[11] = target: T3, Melanocortin receptor 4; assay: MC4R antagonist potency on cAMP, dose response, cell-based, TR-FRET, biased antagonists (AID 602298); format: functional;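 note: antagonist potency against agonist-stimulated cAMP production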
[12] = target: Adenosylmethionine-8-amino-7-oxononanoate aminotransferase (Mycobacterium tuberculosis, UniProt P9WQ81); assay: Mycobacterium tuberculosis BioA enzyme inhibitor Measured in Biochemical System Using Plate Reader - 2163-02_Inhibitor_Dose_CherryPick_Activity.; format: functional, Mycobacterium tuberculosis UT205
[13] = tested on: HEK293; assay: inhibitors of LMP1-driven NF-kB reporter, dose response, cell-based, HEK293, luciferase, cherry-pick (AID 588343); format: functional; settings: Homo sapiens
[14] = control 3'UTR Renilla luciferase suppression, dose response, counter-screen for Shn3 inhibitor project, cell-based, Clone20-Shn3RL, cherry-picked (AID 624133); format: functional
[15] = target: T4, Latent membrane protein 1 (Human herpesvirus 4 (strain B95-8), UniProt P03230); assay: TES1-eGFP NF-kB reporter inhibition versus Tet-On dsRED, dose response, selectivity assay for LMP1 NF-kB inhibitor project, imaging, HEK293T, dual-color eGFP/dsRED, cherry-picks (AID 588398); format: functional, cell-based
T4 sequence (P03230 whole entry): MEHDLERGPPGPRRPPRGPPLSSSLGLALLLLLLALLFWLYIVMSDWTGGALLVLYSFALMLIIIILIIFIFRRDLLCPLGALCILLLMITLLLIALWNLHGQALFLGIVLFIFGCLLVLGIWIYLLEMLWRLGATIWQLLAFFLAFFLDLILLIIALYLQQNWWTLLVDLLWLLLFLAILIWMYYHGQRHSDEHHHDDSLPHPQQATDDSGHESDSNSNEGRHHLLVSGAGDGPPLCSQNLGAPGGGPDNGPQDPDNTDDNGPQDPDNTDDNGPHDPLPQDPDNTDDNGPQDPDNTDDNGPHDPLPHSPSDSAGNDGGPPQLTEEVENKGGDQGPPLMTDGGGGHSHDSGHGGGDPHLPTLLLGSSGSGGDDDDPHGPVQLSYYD

[16] = Shn3 3'UTR reporter inhibitors, dose response, cell-based, Clone20 osteoblasts, firefly luciferase, cherry-picked (AID 624132); format: functional;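 note: firefly luciferase luminescence from reporter carrying the Shn3 3'UTR in osteoblasts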
[17] = Fluorescence-based cell-based high throughput dose response assay for inhibitors of the interaction of nucleotide-binding oligomerization domain containing 2 (NOD2) and the receptor-interacting serine-threonine kinase 2 (RIPK2).; format: functional; settings: Homo sapiens
[18] = HepG2 cell cytotoxicity, dose response, cytotoxicity control for Shn3 inhibitor project, CellTiter-Glo, cherry-picked (AID 624134); format: functional, cell-based
[19] = target: Aryl hydrocarbon receptor (Homo sapiens, UniProt P35869); settings: Potency;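 note: confirmatory quantitative high-throughput screen measuring activation of the AhR signaling pathway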
Chain of Aryl hydrocarbon receptor (P35869 whole entry): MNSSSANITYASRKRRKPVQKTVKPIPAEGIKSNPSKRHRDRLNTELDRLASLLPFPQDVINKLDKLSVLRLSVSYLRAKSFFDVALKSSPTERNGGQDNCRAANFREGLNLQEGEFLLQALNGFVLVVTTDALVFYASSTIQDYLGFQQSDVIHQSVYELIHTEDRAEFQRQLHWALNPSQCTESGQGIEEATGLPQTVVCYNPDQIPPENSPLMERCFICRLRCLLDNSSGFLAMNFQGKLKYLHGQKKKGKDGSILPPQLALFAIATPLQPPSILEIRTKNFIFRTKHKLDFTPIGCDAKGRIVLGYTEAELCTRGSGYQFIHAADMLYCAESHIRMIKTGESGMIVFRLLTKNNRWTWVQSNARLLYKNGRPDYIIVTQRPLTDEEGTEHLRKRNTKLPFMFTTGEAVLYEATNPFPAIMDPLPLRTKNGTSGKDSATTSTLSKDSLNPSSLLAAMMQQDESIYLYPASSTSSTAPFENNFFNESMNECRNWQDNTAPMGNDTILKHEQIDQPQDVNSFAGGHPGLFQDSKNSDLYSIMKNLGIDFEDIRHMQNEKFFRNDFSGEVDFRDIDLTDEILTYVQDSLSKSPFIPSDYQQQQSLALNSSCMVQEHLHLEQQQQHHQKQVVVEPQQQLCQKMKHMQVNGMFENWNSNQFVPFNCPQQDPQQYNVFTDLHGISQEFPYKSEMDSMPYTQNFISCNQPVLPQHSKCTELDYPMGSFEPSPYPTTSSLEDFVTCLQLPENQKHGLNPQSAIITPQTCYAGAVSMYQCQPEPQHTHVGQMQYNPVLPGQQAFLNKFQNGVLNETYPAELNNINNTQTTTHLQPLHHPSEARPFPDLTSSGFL

[20] = target: T5, Apoptotic protease-activating factor 1 (Homo sapiens, UniProt O14727); assay: SAR analysis of small molecule Activators of Apaf-1 in a Fluorescent assay.; format: functional; settings: read-out: EC50_Mean;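 note: caspase-3 cleavage of fluorogenic Rh110 DEVD substrate downstream of apoptosome activation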
T5 sequence (O14727 whole entry): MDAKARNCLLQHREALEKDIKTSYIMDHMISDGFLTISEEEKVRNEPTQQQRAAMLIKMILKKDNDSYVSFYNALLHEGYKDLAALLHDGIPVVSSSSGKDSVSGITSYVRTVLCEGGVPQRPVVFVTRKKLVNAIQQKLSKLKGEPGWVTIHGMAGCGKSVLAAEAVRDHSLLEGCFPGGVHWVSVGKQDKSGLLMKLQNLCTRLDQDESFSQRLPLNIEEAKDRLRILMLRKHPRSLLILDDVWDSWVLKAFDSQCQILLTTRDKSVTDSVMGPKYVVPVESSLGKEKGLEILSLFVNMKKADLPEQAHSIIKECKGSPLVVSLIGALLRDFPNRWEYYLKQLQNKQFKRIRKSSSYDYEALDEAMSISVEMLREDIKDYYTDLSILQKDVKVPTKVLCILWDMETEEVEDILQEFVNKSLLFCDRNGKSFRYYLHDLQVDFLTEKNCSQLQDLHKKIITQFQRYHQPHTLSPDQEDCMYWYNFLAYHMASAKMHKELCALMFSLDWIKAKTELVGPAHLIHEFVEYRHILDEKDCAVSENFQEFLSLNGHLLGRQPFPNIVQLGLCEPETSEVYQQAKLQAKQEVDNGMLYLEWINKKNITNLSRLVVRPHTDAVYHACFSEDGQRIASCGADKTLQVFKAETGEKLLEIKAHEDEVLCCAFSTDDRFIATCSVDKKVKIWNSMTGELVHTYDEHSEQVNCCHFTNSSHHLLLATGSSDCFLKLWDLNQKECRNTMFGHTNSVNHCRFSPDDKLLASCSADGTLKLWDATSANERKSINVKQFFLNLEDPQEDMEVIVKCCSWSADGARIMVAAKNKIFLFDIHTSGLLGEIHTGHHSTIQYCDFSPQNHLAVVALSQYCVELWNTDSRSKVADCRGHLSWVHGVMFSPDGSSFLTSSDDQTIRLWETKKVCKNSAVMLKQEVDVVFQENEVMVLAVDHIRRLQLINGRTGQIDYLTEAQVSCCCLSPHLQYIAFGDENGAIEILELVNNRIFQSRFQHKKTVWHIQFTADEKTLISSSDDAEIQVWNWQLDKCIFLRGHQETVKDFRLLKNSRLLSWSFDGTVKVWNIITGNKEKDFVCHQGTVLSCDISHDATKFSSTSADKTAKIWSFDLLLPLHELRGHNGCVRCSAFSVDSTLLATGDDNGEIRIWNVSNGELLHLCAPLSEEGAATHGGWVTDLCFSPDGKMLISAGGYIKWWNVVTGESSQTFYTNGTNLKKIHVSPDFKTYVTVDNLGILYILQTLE

[21] = target: Troponin, cardiac muscle (Homo sapiens, UniProt P19429+P45379+P63316); assay: Fluorescence-based biochemical high throughput dose response assay for activators of the calcium sensitivity of cardiac Regulated Thin Filaments (RTF). [Related pubchem assays (depositor defined):AID493008, AID493018, AID504382, AID504383]; format: protein-complex assay
[22] = target: T6, Endoribonuclease toxin MazF (Escherichia coli K-12, UniProt P0AE70); assay: MazF toxin RNase activators, dose response, biochemical, fluorescence, single-stranded RNA substrate, uHTS hits (AID 588481); format: functional
T6 sequence (P0AE70 whole entry): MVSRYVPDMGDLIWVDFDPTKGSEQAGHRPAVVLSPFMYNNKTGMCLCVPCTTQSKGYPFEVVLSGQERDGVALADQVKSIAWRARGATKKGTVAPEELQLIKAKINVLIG

[23] = target: T6, Endoribonuclease toxin MazF; assay: fluorescent RNA oligo signal without MazF, dose response, counter-screen for MazEF activator project, biochemical, fluorescence, single-stranded RNase substrate (AID 588502); format: functional
[24] = target: Beta-lactamase (Salmonella choleraesuis (strain SC-B67), UniProt Q5J463)
Chain of Beta-lactamase (Salmonella choleraesuis (strain SC-B67), UniProt Q5J463) (Q5J463 whole entry): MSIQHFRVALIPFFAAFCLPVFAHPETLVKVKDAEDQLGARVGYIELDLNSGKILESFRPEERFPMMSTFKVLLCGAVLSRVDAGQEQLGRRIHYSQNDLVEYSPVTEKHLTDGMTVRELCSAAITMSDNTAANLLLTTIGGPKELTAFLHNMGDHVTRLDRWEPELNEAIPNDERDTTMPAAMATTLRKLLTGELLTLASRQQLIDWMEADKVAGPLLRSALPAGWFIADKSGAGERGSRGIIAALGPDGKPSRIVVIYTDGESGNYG

[25] = tested on: BJ; assay: cytotoxicity toward BJ-TERT-LT-ST fibroblasts, dose response, cell-based, RAS-independent, luminescence (AID 1935); format: functional; settings: Homo sapiens;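 note: BJ fibroblasts immortalized with TERT plus LT and ST oncogenes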
[26] = tested on: BJ; assay: cytotoxicity toward BJ-TERT fibroblasts, dose response, cell-based, RAS-independent, luminescence (AID 1933); format: functional; settings: Homo sapiens
[27] = target: Beta-lactamase (Pseudomonas aeruginosa, UniProt Q79MP6);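 note: biochemical dose-response test of metallo-beta-lactamase enzyme inhibition, read out by epi-absorbance; purified recombinant IMP-1 metallo-beta-lactamase with nitrocefin as substrate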
Chain of Beta-lactamase (Pseudomonas aeruginosa, UniProt Q79MP6) (Q79MP6 whole entry): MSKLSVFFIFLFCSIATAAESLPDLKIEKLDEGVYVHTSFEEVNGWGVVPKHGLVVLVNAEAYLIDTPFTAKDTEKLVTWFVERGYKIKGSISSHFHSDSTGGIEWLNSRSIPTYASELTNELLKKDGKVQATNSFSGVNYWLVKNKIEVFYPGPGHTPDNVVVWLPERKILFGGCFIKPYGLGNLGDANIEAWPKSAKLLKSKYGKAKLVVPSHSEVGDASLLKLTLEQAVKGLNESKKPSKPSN

[28] = target: Beta Lactamase (Pseudomonas aeruginosa, UniProt Q932Y6);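 note: confirmatory high-throughput screen measuring VIM-2 metallo-beta-lactamase inhibition by epi-absorbance in dose response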
Chain of Beta Lactamase (Q932Y6 whole entry): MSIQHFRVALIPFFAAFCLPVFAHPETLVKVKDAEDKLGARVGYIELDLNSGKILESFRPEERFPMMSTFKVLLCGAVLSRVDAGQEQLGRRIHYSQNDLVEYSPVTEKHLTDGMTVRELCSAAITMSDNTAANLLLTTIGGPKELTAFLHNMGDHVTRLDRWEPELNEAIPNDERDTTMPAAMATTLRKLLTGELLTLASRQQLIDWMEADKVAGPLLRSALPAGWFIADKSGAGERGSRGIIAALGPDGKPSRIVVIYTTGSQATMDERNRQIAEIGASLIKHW

[29] = cytotoxicity toward DRD oncogenic fibroblasts, dose response, cell-based, non-viral oncogenic, luminescence (AID 1934); format: functional; settings: Homo sapiens
[30] = tested on: BJ; assay: cells; format: functional, cell-based; settings: Homo sapiens
[31] = target: Aurora kinase B (Homo sapiens, UniProt Q96GD4); format: functional
[32] = target: Aurora kinase A (Homo sapiens, UniProt O14965); format: functional;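 note: value from the Navigating the Kinome kinase panel profiling, panel entry STK6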
Chain of Aurora kinase A (O14965 whole entry): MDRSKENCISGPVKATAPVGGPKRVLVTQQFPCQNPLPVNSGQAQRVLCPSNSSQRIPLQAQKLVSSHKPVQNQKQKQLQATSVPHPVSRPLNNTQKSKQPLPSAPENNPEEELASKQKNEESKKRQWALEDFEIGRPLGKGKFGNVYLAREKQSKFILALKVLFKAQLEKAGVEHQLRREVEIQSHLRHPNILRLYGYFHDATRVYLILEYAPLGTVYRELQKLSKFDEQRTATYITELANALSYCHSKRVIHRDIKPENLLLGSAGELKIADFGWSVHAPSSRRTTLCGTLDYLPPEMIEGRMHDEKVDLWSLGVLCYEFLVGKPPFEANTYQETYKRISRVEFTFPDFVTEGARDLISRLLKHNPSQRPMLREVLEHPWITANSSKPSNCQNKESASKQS

[33] = target: Serine/threonine-protein kinase pim-1 (Homo sapiens, UniProt P11309); format: functional
[34] = target: Receptor-type tyrosine-protein kinase FLT3 (Homo sapiens, UniProt P36888); format: functional;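 note: FLT3 was tested as one member of a kinome-wide kinase panel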
Chain of Receptor-type tyrosine-protein kinase FLT3 (P36888 whole entry): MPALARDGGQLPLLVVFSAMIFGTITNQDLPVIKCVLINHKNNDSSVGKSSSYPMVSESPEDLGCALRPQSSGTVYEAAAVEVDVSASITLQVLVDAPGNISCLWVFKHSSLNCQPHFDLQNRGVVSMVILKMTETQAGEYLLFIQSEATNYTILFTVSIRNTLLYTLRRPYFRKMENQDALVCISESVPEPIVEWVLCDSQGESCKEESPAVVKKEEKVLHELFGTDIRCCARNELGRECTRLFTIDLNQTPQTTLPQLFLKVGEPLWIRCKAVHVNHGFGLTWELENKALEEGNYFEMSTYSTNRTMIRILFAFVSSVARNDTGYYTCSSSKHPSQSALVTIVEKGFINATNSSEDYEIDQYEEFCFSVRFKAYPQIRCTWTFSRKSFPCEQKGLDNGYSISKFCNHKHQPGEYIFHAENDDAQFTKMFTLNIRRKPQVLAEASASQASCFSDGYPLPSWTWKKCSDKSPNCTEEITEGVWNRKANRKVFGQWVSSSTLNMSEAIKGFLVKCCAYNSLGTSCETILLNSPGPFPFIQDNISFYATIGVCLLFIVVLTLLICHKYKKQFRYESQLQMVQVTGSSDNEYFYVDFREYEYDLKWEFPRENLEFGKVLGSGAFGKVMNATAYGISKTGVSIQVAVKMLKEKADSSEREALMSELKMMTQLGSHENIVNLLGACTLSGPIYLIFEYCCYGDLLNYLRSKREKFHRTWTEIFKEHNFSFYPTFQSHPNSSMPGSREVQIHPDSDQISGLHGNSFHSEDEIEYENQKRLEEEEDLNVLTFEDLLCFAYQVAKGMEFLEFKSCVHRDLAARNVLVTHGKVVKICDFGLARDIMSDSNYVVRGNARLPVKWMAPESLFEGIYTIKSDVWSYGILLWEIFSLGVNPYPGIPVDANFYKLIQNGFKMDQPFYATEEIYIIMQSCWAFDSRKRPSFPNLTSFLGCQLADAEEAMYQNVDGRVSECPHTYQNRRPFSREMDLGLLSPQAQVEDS

[35] = target: T7, Mitochondrial peptide methionine sulfoxide reductase (Bos taurus, UniProt P54149); format: functional;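 note: absorbance read-out, biochemical high-throughput dose-response screen for MsrA inhibitors, confirmatory; recombinant bovine MsrA coupled to E. coli TrxB with NADPH and selenocystamine; potency is for inhibitors of MsrA activity on DMSO substrate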
T7 sequence (P54149 whole entry): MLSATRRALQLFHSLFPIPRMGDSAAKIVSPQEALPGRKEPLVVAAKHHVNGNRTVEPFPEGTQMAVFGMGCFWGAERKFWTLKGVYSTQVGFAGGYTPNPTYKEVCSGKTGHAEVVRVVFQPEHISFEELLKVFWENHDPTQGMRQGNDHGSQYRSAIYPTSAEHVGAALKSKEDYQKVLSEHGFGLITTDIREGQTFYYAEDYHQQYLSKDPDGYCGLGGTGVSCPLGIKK

COc1ccc(C2=[N+](C)CCn3cccc32)c(OC)c1
IC50 [1]: > 50 µM (inactive)
IC50 [2]: 7 µM (active)

Cc1noc(C)c1COC(=O)c1cnc(Cl)c(Cl)c1
IC50 [3]: 5.01 µM (active)
IC50 [4]: 10 µM (active)

CCOc1cc(NC(=O)c2cccs2)c(OCC)cc1NC(=O)c1ccco1
AC50 [5]: 0.708 µM (inconclusive)
AC50 [6]: 0.178 µM (inconclusive)
IC50 [7]: > 50 µM (not active)
AC50 [8]: 0.0355 µM (inconclusive)
EC50 [9]: > 89.1 µM (inactive)

CCOC(=O)CCC(=O)Nc1ccc(S(=O)(=O)N2CCc3ccccc32)cc1
IC50 [10]: > 64.6 µM (inactive)
IC50 [11]: > 64.6 µM (inactive)

CCOC(=O)c1cc(C)nc(S(C)(=O)=O)c1C#N
IC50 [10]: > 64.6 µM (inactive)
IC50 [11]: > 64.6 µM (inactive)

COc1ccc(NC(=O)c2ccc(Cl)nc2)cc1S(=O)(=O)N1CCOCC1
AC50 [12]: 2.27 µM (active)

COc1ccc(C(=O)C[n+]2cccc(C)c2)cc1
IC50 [3]: 2.05 µM (active)
IC50 [4]: 2.43 µM (active)

O=C1C(=C(c2ccccc2)N2CCOCC2)Cc2ccccc21
AC50 [13]: 4.87 µM (active)
AC50 [14]: 5.97 µM (active)
AC50 [15]: 2.98 µM (active)
AC50 [16]: 0.999 µM (active)
IC50 [17]: 1.34 µM (active)
AC50 [18]: 38.4 µM (active)

N#CSCSc1nc2ccccc2s1
AC50 [19]: 50.1 µM (inconclusive)

O=C(O)c1coc(-c2ccc(F)cc2)n1
EC50 [20]: > 100 µM (inactive)

CN(/N=C/c1ccc(N(C)C)cc1)C1=NS(=O)(=O)c2ccccc21
EC50 [21]: 4.5 µM (active)
EC50 [22]: > 99 µM (inactive)
EC50 [23]: > 99 µM (inactive)
IC50 [24]: 23 µM (inactive)
EC50 [25]: > 150 µM (not active)
EC50 [26]: 27.9 µM (active)
IC50 [27]: 13.4 µM (inactive)
IC50 [28]: 15 µM (inactive)
EC50 [29]: 84.8 µM (active)
EC50 [30]: 47 µM (active)

Cc1cc(N=Cc2ccc(O)c(O)c2)c2ccccc2n1
Ki [31]: 0.00631 µM (active)
Ki [32]: 0.0251 µM (active)

c1ccc(C2Cc3cn[nH]c3C2)cc1 (centres undefined)
Ki [33]: 79.4 µM (active)
Ki [34]: 15.8 µM (active)

COc1ccc(/C=N\NC(=O)/C(=C\Nc2nccc(C)n2)NC(=O)c2ccccc2)cc1
IC50 [35]: 149 µM (inactive)
